Test results as given in patent US8192962B2, “Processes for detecting toxic substances” (Daikin Industries, Ltd., priority 2001, dated 2012).

System: Metabolism protein genes
Assay: DNA chip mRNA expression in yeast, metabolism protein genes (Table 7)
Format: cell-based, Saccharomyces cerevisiae S288C
Procedure, shortened: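 Chemical exposure: 2 h, log-phase S. cerevisiae S288C, YPD, 25° C., dose set to inhibit growth without death. Profiling: mRNA labeled by reverse transcription with Cy3- or Cy5-dUTP, hybridized to whole-genome array. Output: fluorescence ratio against untreated culture.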

CN(C)C(=S)SSC(=S)N(C)C [(10), Tetramethylthiuram disulfide]
The level of expressed mRNA in the presence of chemical substance/The level of expressed mRNA in the absence of chemical substance (yeast gene YAL012W): 3.9 | The level of expressed mRNA in the presence of chemical substance/The level of expressed mRNA in the absence of chemical substance (yeast gene YAL038W): 1.1 | The level of expressed mRNA in the presence of chemical substance/The level of expressed mRNA in the absence of chemical substance (yeast gene YAL044C): 0.6 | The level of expressed mRNA in the presence of chemical substance/The level of expressed mRNA in the absence of chemical substance (yeast gene YAL054C): 4.1 | The level of expressed mRNA in the presence of chemical substance/The level of expressed mRNA in the absence of chemical substance (yeast gene YAR071W): 0.3 | The level of expressed mRNA in the presence of chemical substance/The level of expressed mRNA in the absence of chemical substance (yeast gene YBL001C): 0.9 | level of expressed mRNA in the presence/in the absence of chemical substance (yeast gene YBR003W): 1.3 | level of expressed mRNA in the presence/in the absence of chemical substance (yeast gene YBR011C): 1.0 | The level of expressed mRNA in the presence of chemical substance/The level of expressed mRNA in the absence of chemical substance (yeast gene YBR014C): 0.8 | level of expressed mRNA in the presence/in the absence of chemical substance (yeast gene YBR020W): 1.1 | The level of expressed mRNA in the presence of chemical substance/The level of expressed mRNA in the absence of chemical substance (yeast gene YBR023C): 0.4 | The level of expressed mRNA in the presence of chemical substance/The level of expressed mRNA in the absence of chemical substance (yeast gene YBR029C): 1.1 | The level of expressed mRNA in the presence of chemical substance/The level of expressed mRNA in the absence of chemical substance (yeast gene YBR035C): 1.5 | The level of expressed mRNA in the presence of chemical substance/The level of expressed mRNA in the absence of chemical substance (yeast gene YBR068C): 2.5 | The level of expressed mRNA in the presence of chemical substance/The level of expressed mRNA in the absence of chemical substance (yeast gene YBR111C): 1.9 | The level of expressed mRNA in the presence of chemical substance/The level of expressed mRNA in the absence of chemical substance (yeast gene YBR183W): 2.0 | The level of expressed mRNA in the presence of chemical substance/The level of expressed mRNA in the absence of chemical substance (yeast gene YBR222C): 1.0 | The level of expressed mRNA in the presence of chemical substance/The level of expressed mRNA in the absence of chemical substance (yeast gene YBR256C): 6.8 | The level of expressed mRNA in the presence of chemical substance/The level of expressed mRNA in the absence of chemical substance (yeast gene YBR296C): 1.8 | The level of expressed mRNA in the presence of chemical substance/The level of expressed mRNA in the absence of chemical substance (yeast gene YCL009C): 1.6 | The level of expressed mRNA in the presence of chemical substance/The level of expressed mRNA in the absence of chemical substance (yeast gene YCL064C): 5.2 | level of expressed mRNA in the presence/in the absence of chemical substance (yeast gene YCR010C): 4.7 | level of expressed mRNA in the presence/in the absence of chemical substance (yeast gene YCR034W): 0.2 | The level of expressed mRNA in the presence of chemical substance/The level of expressed mRNA in the absence of chemical substance (yeast gene YCR048W): 0.5 | The level of expressed mRNA in the presence of chemical substance/The level of expressed mRNA in the absence of chemical substance (yeast gene YCR098C): 2.4 | The level of expressed mRNA in the presence of chemical substance/The level of expressed mRNA in the absence of chemical substance (yeast gene YDR019C): 0.7 | level of expressed mRNA in the presence/in the absence of chemical substance (yeast gene YDR050C): 1.3 | level of expressed mRNA in the presence/in the absence of chemical substance (yeast gene YDR073W): 1.2 | level of expressed mRNA in the presence/in the absence of chemical substance (yeast gene YDR123C): 0.6 | level of expressed mRNA in the presence/in the absence of chemical substance (yeast gene YDR178W): 0.8 | level of expressed mRNA in the presence/in the absence of chemical substance (yeast gene YDR277C): 0.9 | level of expressed mRNA in the presence/in the absence of chemical substance (yeast gene YDR284C): 1.0 | level of expressed mRNA in the presence/in the absence of chemical substance (yeast gene YDR345C): 1.1 | The level of expressed mRNA in the presence of chemical substance/The level of expressed mRNA in the absence of chemical substance (yeast gene YDR380W): 0.3 | level of expressed mRNA in the presence/in the absence of chemical substance (yeast gene YDR400W): 1.4 | level of expressed mRNA in the presence/in the absence of chemical substance (yeast gene YDR408C): 0.5 | level of expressed mRNA in the presence/in the absence of chemical substance (yeast gene YDR483W): 1.1 | The level of expressed mRNA in the presence of chemical substance/The level of expressed mRNA in the absence of chemical substance (yeast gene YDR497C): 0.8 | The level of expressed mRNA in the presence of chemical substance/The level of expressed mRNA in the absence of chemical substance (yeast gene YDR502C): 0.9 | The level of expressed mRNA in the presence of chemical substance/The level of expressed mRNA in the absence of chemical substance (yeast gene YDR516C): 5.2 | level of expressed mRNA in the presence/in the absence of chemical substance (yeast gene YEL063C): 1.7 | level of expressed mRNA in the presence/in the absence of chemical substance (yeast gene YER015W): 0.9 | The level of expressed mRNA in the presence of chemical substance/The level of expressed mRNA in the absence of chemical substance (yeast gene YER026C): 1.5 | The level of expressed mRNA in the presence of chemical substance/The level of expressed mRNA in the absence of chemical substance (yeast gene YER053C): 3.9 | The level of expressed mRNA in the presence of chemical substance/The level of expressed mRNA in the absence of chemical substance (yeast gene YER069W): 10.4 | level of expressed mRNA in the presence/in the absence of chemical substance (yeast gene YER081W): 1.1 | The level of expressed mRNA in the presence of chemical substance/The level of expressed mRNA in the absence of chemical substance (yeast gene YER096W): 3.5 | level of expressed mRNA in the presence/in the absence of chemical substance (yeast gene YER120W): 0.9 | The level of expressed mRNA in the presence of chemical substance/The level of expressed mRNA in the absence of chemical substance (yeast gene YER178W): 1.3 | level of expressed mRNA in the presence/in the absence of chemical substance (yeast gene YFL011W): 1.6 | The level of expressed mRNA in the presence of chemical substance/The level of expressed mRNA in the absence of chemical substance (yeast gene YFL014W): 5.8 | The level of expressed mRNA in the presence of chemical substance/The level of expressed mRNA in the absence of chemical substance (yeast gene YFL030W): 4.9 | The level of expressed mRNA in the presence of chemical substance/The level of expressed mRNA in the absence of chemical substance (yeast gene YFL031W): 0.7 | The level of expressed mRNA in the presence of chemical substance/The level of expressed mRNA in the absence of chemical substance (yeast gene YFL056C): 31.3 | The level of expressed mRNA in the presence of chemical substance/The level of expressed mRNA in the absence of chemical substance (yeast gene YFL057C): 46.1 | The level of expressed mRNA in the presence of chemical substance/The level of expressed mRNA in the absence of chemical substance (yeast gene YFR047C): 1.5 | level of expressed mRNA in the presence/in the absence of chemical substance (yeast gene YGL012W): 0.9 | The level of expressed mRNA in the presence of chemical substance/The level of expressed mRNA in the absence of chemical substance (yeast gene YGL022W): 0.4 | level of expressed mRNA in the presence/in the absence of chemical substance (yeast gene YGL115W): 1.2 | The level of expressed mRNA in the presence of chemical substance/The level of expressed mRNA in the absence of chemical substance (yeast gene YGL126W): 0.7 | The level of expressed mRNA in the presence of chemical substance/The level of expressed mRNA in the absence of chemical substance (yeast gene YGL202W): 1.7 | level of expressed mRNA in the presence/in the absence of chemical substance (yeast gene YGL205W): 0.6 | The level of expressed mRNA in the presence of chemical substance/The level of expressed mRNA in the absence of chemical substance (yeast gene YGL209W): 0.4 | The level of expressed mRNA in the presence of chemical substance/The level of expressed mRNA in the absence of chemical substance (yeast gene YGL248W): 2.9 | The level of expressed mRNA in the presence of chemical substance/The level of expressed mRNA in the absence of chemical substance (yeast gene YGL252C): 1.7 | The level of expressed mRNA in the presence of chemical substance/The level of expressed mRNA in the absence of chemical substance (yeast gene YGR037C): 1.4 | The level of expressed mRNA in the presence of chemical substance/The level of expressed mRNA in the absence of chemical substance (yeast gene YGR055W): 2.4 | level of expressed mRNA in the presence/in the absence of chemical substance (yeast gene YGR096W): 0.8 | level of expressed mRNA in the presence/in the absence of chemical substance (yeast gene YGR191W): 0.7 | The level of expressed mRNA in the presence of chemical substance/The level of expressed mRNA in the absence of chemical substance (yeast gene YGR194C): 2.1 | level of expressed mRNA in the presence/in the absence of chemical substance (yeast gene YGR204W): 2.3 | The level of expressed mRNA in the presence of chemical substance/The level of expressed mRNA in the absence of chemical substance (yeast gene YGR256W): 2.5 | The level of expressed mRNA in the presence of chemical substance/The level of expressed mRNA in the absence of chemical substance (yeast gene YGR282C): 0.8 | level of expressed mRNA in the presence/in the absence of chemical substance (yeast gene YGR288W): 2.6 | level of expressed mRNA in the presence/in the absence of chemical substance (yeast gene YHR025W): 0.4 | The level of expressed mRNA in the presence of chemical substance/The level of expressed mRNA in the absence of chemical substance (yeast gene YHR111W): 4.2 | level of expressed mRNA in the presence/in the absence of chemical substance (yeast gene YHR123W): 1.1 | The level of expressed mRNA in the presence of chemical substance/The level of expressed mRNA in the absence of chemical substance (yeast gene YHR137W): 0.9 | The level of expressed mRNA in the presence of chemical substance/The level of expressed mRNA in the absence of chemical substance (yeast gene YHR174W): 1.5 | The level of expressed mRNA in the presence of chemical substance/The level of expressed mRNA in the absence of chemical substance (yeast gene YHR176W): 6.4 | level of expressed mRNA in the presence/in the absence of chemical substance (yeast gene YHR210C): 0.9 | level of expressed mRNA in the presence/in the absence of chemical substance (yeast gene YIL006W): 1.1 | The level of expressed mRNA in the presence of chemical substance/The level of expressed mRNA in the absence of chemical substance (yeast gene YIL045W): 3.2 | The level of expressed mRNA in the presence of chemical substance/The level of expressed mRNA in the absence of chemical substance (yeast gene YIL107C): 3.5 | The level of expressed mRNA in the presence of chemical substance/The level of expressed mRNA in the absence of chemical substance (yeast gene YIL154C): 1.0 | The level of expressed mRNA in the presence of chemical substance/The level of expressed mRNA in the absence of chemical substance (yeast gene YIL155C): 2.9 | The level of expressed mRNA in the presence of chemical substance/The level of expressed mRNA in the absence of chemical substance (yeast gene YIL167W): 12.7 | The level of expressed mRNA in the presence of chemical substance/The level of expressed mRNA in the absence of chemical substance (yeast gene YIL172C): 7.1 | The level of expressed mRNA in the presence of chemical substance/The level of expressed mRNA in the absence of chemical substance (yeast gene YIR034C): 3.5 | The level of expressed mRNA in the presence of chemical substance/The level of expressed mRNA in the absence of chemical substance (yeast gene YIR036C): 1.9 | The level of expressed mRNA in the presence of chemical substance/The level of expressed mRNA in the absence of chemical substance (yeast gene YJL031C): 3.6 | The level of expressed mRNA in the presence of chemical substance/The level of expressed mRNA in the absence of chemical substance (yeast gene YJL068C): 3.1 | The level of expressed mRNA in the presence of chemical substance/The level of expressed mRNA in the absence of chemical substance (yeast gene YJL088W): 4.1 | The level of expressed mRNA in the presence of chemical substance/The level of expressed mRNA in the absence of chemical substance (yeast gene YJL099W): 3.1 | level of expressed mRNA in the presence/in the absence of chemical substance (yeast gene YJL121C): 0.4 | level of expressed mRNA in the presence/in the absence of chemical substance (yeast gene YJL167W): 0.9 | The level of expressed mRNA in the presence of chemical substance/The level of expressed mRNA in the absence of chemical substance (yeast gene YJL172W): 1.9 | The level of expressed mRNA in the presence of chemical substance/The level of expressed mRNA in the absence of chemical substance (yeast gene YJL219W): 2.3 | level of expressed mRNA in the presence/in the absence of chemical substance (yeast gene YJR077C): 0.7 | The level of expressed mRNA in the presence of chemical substance/The level of expressed mRNA in the absence of chemical substance (yeast gene YJR137C): 4.8
